Test results from patent US20220287995A1, “COMPOSITIONS AND METHODS FOR INHIBITING BACTERIAL VIRULENCE AND FLIM-BASED DEVICE AND METHOD FOR ANTIBIOTIC SUSCEPTIBILITY TESTING” (THE REGENTS OF THE UNIVERSITY OF CALIFORNIA, priority 2019, published 2022).

Tested on: P. aeruginosa
Test: Fluorescence lifetime imaging microscopy (FLIM) phasor g-values of P. aeruginosa
Format: cell-based, Pseudomonas aeruginosa
Conditions: for enzyme-bound NADH pool: surface-attached P. aeruginosa treated with carbon source; for fluorescence lifetime g-value / change in FLIM g-value: surface-attached; for fluorescence lifetime g-value: modified minimal medium, single carbon source at 0.2%; for change in FLIM g-value: rich (PS:DB) medium, carbon source 0.2% added at 3 hours, harvested after 1 additional hour
Experimental: Fluorescence lifetime measurements were performed using a custom-built multiphoton microscope setup based on an Olympus FV1000 system and an Olympus IX81 microscope (Olympus, Waltham, Mass.) as described previously (68). The FLIM microscope uses an 80 MHz ultrafast Ti:Sapphire Mai Tai laser (Spectra-physics, Santa Clara, Calif.) set at 740 nm for mulitphoton excitation. The setup used a 690-nm SP dichroic-460/80 nm filter pair for separating emission and a PlanApo N Olympus oil immersion 60× (1.42 NA) objective (Olympus, Waltham, Mass.), which is capable of bacterial single-cell resolution imaging. An H7422P-40 photomultiplier tube module (Hamamatsu, Bridgewater, N.J.) and A320 FastFLIM Box (ISS, Champaign, Ill.) were used to measure fluorescence lifetime. Image acquisition was controlled by SimFCS software version 4 (64-bit) (Laboratory for Fluorescence Dynamics, Irvine, Calif.). Planktonic and surface-attached cells were isolated by modifying a protocol described previously (12, 50) (FIG. 11A).
Masks for bacterial cells were created through SimFCS using fluorescence intensity images and image intensity thresholding (FIG. 11B). Fluorescence lifetimes within the masked areas were transformed using
The microscope was calibrated before each session by setting the fluorescence lifetime obtained for 10 μM rhodamine 110 (Sigma, St. Louis, Mo.) to 4.0 ns. The laser power was set to 20% (<3 mW at back aperture of the microscope) using an acousto-optic modulator (AA Opto Electronic, Orsay, France). Sub-cellular fluorescence lifetimes (FIG. 1A) were collected using the 20× digital zoom mode at a rate of 1.7 sec/frame. All other P. aeruginosa measurements were performed using the 6× digital zoom mode using the same frame rate. For all measurements, 40 sequential frames were acquired to generate a single FLIM image.
P. aeruginosa strains were cultured overnight in PS:DB, diluted 1:100 into 35 mm glass-bottom dishes (MatTek Corporation, Ashland, Mass.) containing the same medium, and cultured for 4 to 6 hours (FIGS. 2E-F, 4A, 5A, and 8C). Alternatively, strains were cultured overnight in minimal medium A, diluted 1:100 into modified minimal media A with single carbon sources in culture tubes (FIGS. 6D-E and 7A-B, D) or glass-bottom dishes and cultured to an OD600 of 0.2 (FIG. 2E-F).
Planktonic cells were transferred to a new glass-bottom dish, immobilized using an agar pad, and imaged immediately (FIG. 11A). Agar pads were made using 1% Bacto agar (BD, Franklin Lakes, N.J.) and DB buffer (1, 2) or modified minimal medium A containing no carbon source for strains that were cultured in PS:DB or modified minimal medium, respectively, and were cut into 1.5×1.5 cm squares. Surface-attached cells were isolated by aspirating the supernatant from the dish, washing the dish to remove planktonic cells with DB buffer or modified minimal medium with no carbon source for strains cultured in PS:DB or modified minimal medium, respectively, and placing an agar pad on the dish surface, and were imaged immediately. Imaging was performed at room temperature.
For experiments involving FLIM measurements of the effects of antimycin A (FIG. 7D), P. aeruginosa were grown in culture tubes to saturation in modified minimal medium A containing 0.2% citrate, diluted 1:100 into the same medium in culture tubes, supplemented with 10 μM antimycin A (Sigma, St. Louis, Mo.) with 0.1% ethanol or with 0.1% ethanol, cultured to an OD600 of 0.2, and immediately measured for fluorescence lifetime. Fluorescence lifetimes for pyocyanin and pyoverdine (FIG. 7C) were measured using solutions of 6.2 mM pyocyanin (P0046, Sigma, St. Louis, Mo.) in DMSO and 5 mg/mL pyoverdine (P8124, Sigma, St. Louis, Mo.) in deionized water, respectively. For FIG. 6D, cells with fluorescence intensities below a value of 1.0, as reported by the SimFCS software, were excluded from the analysis. […]

Structure (SMILES) | enzyme-bound NADH pool | fluorescence lifetime g-value | change in FLIM g-value
O=C(O)CC(O)(CC(=O)O)C(=O)O [citrate] | decreased | increasing g-values | greatest increases
OCC(O)CO [glycerol] | relatively small impacts | increasing g-values | smallest changes
